Laboratory results taken from patent US8343475B2, “Small cationic antimicrobial peptides” (priority 2006, dated 2013).
≈ marks a conversion by molar mass, not a printed value. Like-named read-outs stand apart in the source and are kept apart here. Residues, ends and D or L forms follow the SMILES beside them.

Legend:
Format in all cases: cell-based
[1] = tested on: Pseudomonas aeruginosa PAO1 strain H103; conditions: PAO1
Description: The biological activity of the peptides can be determined by standard methods known to those of skill in the art, such as “minimal inhibitory concentration (MIC)” assay described in the present examples, whereby the lowest concentration at which no change in OD is observed for a given period of time is recorded as MIC.
(§1) Minimal inhibitory concentration (MIC) determination. The MIC of the peptides were measured using a modified broth microdilution method in Mueller Hinton (MH) medium (Wu M, Hancock R E W. 1999. Interaction of the cyclic antimicrobial cationic peptide bactenecin with the outer and cytoplasmic membrane. J Biol Chem 274, 29-35). Briefly, the peptides were dissolved and stored in glass vials. The assay was performed in sterile 96-well polypropylene microtitre plates were used. Serial dilutions of the peptides to be assayed were performed in 0.01% acetic acid (Fisher) containing 0.2% bovine serum albumin (Boehringer Mannheim GmbH) at 10× the desired final concentration. Ten microlitres of the 10× peptides were added to each well of a 96-well polypropylene plate containing 90 μl of MH media per well. Bacteria were added to the plate from an overnight culture at 2-7×10^5 colony forming units/ml and incubated over night at 37° C. The MIC was taken as the concentration at which no growth was observed.
(§2) Strains. For the killing assay a mini-Tn5-lux mutant in Pseudomonas aeruginosa H103 was used. The strain is called H1001 and contains a fliC::luxCDABE transcriptional fusion resulting in constitutive expression of luciferase. The bacterial strains used for the antimicrobial activity assays included Escherichia coli UB1005 (F-, nalA37, metB1), a wild-type Salmonella enterica ssp. typhimurium (S. typhimurium), wild-type Pseudomonas aeruginosa PAO1 strain H103, Enterococcus faecalis ATCC29212, Staphylococcus aureus ATCC25923, and a clinical isolate of Staphylococcus epidermidis obtained from Dr. D. Speert (Department of Medicine, University of British Columbia). Antifungal activity was tested using a lab isolate of Candida albicans obtained from Dr. B. Dill (Department of Microbiology and Immunology, University of British Columbia).

[2] = tested on: Enterococcus faecalis ATCC29212; conditions: ATCC29212
Description: as §1, §2

[3] = tested on: wild-type Salmonella enterica ssp. typhimurium
Description: as §1, §2

[4] = tested on: lab isolate of Candida albicans; conditions: lab isolate of
Description: as §1, §2

[5] = tested on: clinical isolate of Staphylococcus epidermidis; conditions: clinical isolate of
Description: as §1, §2

Escherichia coli UB1005 = tested on: Escherichia coli UB1005
Description: as §1, §2

[6] = tested on: Staphylococcus aureus ATCC25923; conditions: ATCC25923
Description: as §1, §2

[7] = indolicidin substitution variants (Table 4)

| SMILES | MIC P. aerug [1] | MIC E. faecalis [2] | MIC S. typhi [3] | MIC C. albicans [4] | MIC S. epi. [5] | MIC E. coli (Escherichia coli UB1005; UB1005) | MIC S. aureus [6] | MIC E. coli (Escherichia coli UB1005; [7]) |
| --- | --- | --- | --- | --- | --- | --- | --- | --- |
| CC[C@H](C)[C@H](NC(=O)[C@H](CCCNC(=N)N)NC(=O)[C@H](Cc1ccccc1)NC(=O)[C@H](CCCNC(=N)N)NC(=O)[C@@H](N)CCCCN)C(=O)N[C@@H](CCCNC(=N)N)C(=O)N[C@H](C(=O)N[C@@H](CCCNC(=N)N)C(=O)N[C@H](C(=O)N[C@H](C(=O)N[C@@H](CCCNC(=N)N)C(=O)N[C@@H](CCCCN)C(N)=O)[C@@H](C)CC)C(C)C)C(C)C [HH15, KRFRIRVRVIRK] (H-KRFRIRVRVIRK-NH2) | 6 µg/mL (≈ 3.69 µM) | 25 µg/mL (≈ 15.4 µM) | 3 µg/mL (≈ 1.84 µM) | 12 µg/mL (≈ 7.38 µM) | 0.8 µg/mL (≈ 0.492 µM) | 1.6 µg/mL (≈ 0.984 µM) | 6 µg/mL (≈ 3.69 µM) |  |
| CC[C@H](C)[C@H](NC(=O)[C@H](CCCNC(=N)N)NC(=O)[C@H](Cc1ccccc1)NC(=O)[C@H](CCCNC(=N)N)NC(=O)[C@@H](N)CCCCN)C(=O)N[C@@H](CCCNC(=N)N)C(=O)N[C@H](C(=O)N[C@@H](C)C(=O)N[C@H](C(=O)N[C@@H](CCCNC(=N)N)C(=O)N[C@@H](CCCNC(=N)N)C(=O)N[C@@H](C)C(N)=O)C(C)C)C(C)C [HH10, KRFRIRVAVRRA] (H-KRFRIRVAVRRA-NH2; N-terminus assumed) | 25 µg/mL (≈ 16.4 µM) | >50 µg/mL | >50 µg/mL | 12 µg/mL (≈ 7.86 µM) | 3.1 µg/mL (≈ 2.03 µM) | 6 µg/mL (≈ 3.93 µM) | 25 µg/mL (≈ 16.4 µM) |  |
| CC[C@H](C)[C@H](N)C(=O)N[C@@H](CC(C)C)C(=O)N1CCC[C@H]1C(=O)N[C@@H](Cc1c[nH]c2ccccc12)C(=O)N[C@@H](CCCCN)C(=O)N[C@@H](CCCCN)C(=O)N1CCC[C@H]1C(=O)N[C@@H](Cc1c[nH]c2ccccc12)C(=O)N[C@@H](Cc1c[nH]c2ccccc12)C(=O)N1CCC[C@H]1C(=O)N[C@@H](Cc1c[nH]c2ccccc12)C(=O)N[C@@H](CCCNC(=N)N)C(=O)N[C@@H](CCCNC(=N)N)C(N)=O [HH113, ILPWKKPWWPWRR] (H-ILPWKKPWWPWRR-NH2; N-terminus assumed) | 31 µg/mL (≈ 16.8 µM) | 125 µg/mL (≈ 67.6 µM) | 62 µg/mL (≈ 33.5 µM) | 62 µg/mL (≈ 33.5 µM) | 8 µg/mL (≈ 4.33 µM) |  | 31 µg/mL (≈ 16.8 µM) | 31 µg/mL (≈ 16.8 µM) |
| CC[C@H](C)[C@H](NC(=O)[C@H](CCCNC(=N)N)NC(=O)[C@H](CC(C)C)NC(=O)[C@H](CCCNC(=N)N)NC(=O)[C@@H](N)C(C)C)C(=O)N[C@@H](CCCNC(=N)N)C(=O)N[C@H](C(=O)N[C@@H](C)C(=O)N[C@H](C(=O)N[C@H](C(=O)N[C@@H](CCCNC(=N)N)C(=O)N[C@@H](CCCCN)C(N)=O)[C@@H](C)CC)C(C)C)C(C)C [HH8, VRLRIRVAVIRK] (H-VRLRIRVAVIRK-NH2) | 6 µg/mL (≈ 4.06 µM) | 12 µg/mL (≈ 8.12 µM) | 6 µg/mL (≈ 4.06 µM) | 3 µg/mL (≈ 2.03 µM) | 1.6 µg/mL (≈ 1.08 µM) | 3 µg/mL (≈ 2.03 µM) | 6 µg/mL (≈ 4.06 µM) |  |
| CC[C@H](C)[C@H](N)C(=O)N[C@@H](CC(C)C)C(=O)N1CCC[C@H]1C(=O)N[C@@H](Cc1c[nH]c2ccccc12)C(=O)N[C@@H](CCCCN)C(=O)N[C@@H](Cc1c[nH]c2ccccc12)C(=O)N[C@@H](CCCNC(=N)N)C(=O)N[C@@H](Cc1c[nH]c2ccccc12)C(=O)N[C@@H](Cc1c[nH]c2ccccc12)C(=O)N[C@@H](CCCCN)C(=O)N[C@@H](Cc1c[nH]c2ccccc12)C(=O)N[C@@H](CCCNC(=N)N)C(=O)N[C@@H](CCCNC(=N)N)C(N)=O [HH971, ILPWKWRWWKWRR] (H-ILPWKWRWWKWRR-NH2; N-terminus assumed) | 16 µg/mL (≈ 8.01 µM) | 31 µg/mL (≈ 15.5 µM) | 16 µg/mL (≈ 8.01 µM) | 8 µg/mL (≈ 4.01 µM) | 2 µg/mL (≈ 1 µM) |  | 8 µg/mL (≈ 4.01 µM) | 8 µg/mL (≈ 4.01 µM) |
| CC[C@H](C)[C@H](NC(=O)[C@H](CCCNC(=N)N)NC(=O)[C@H](CC(C)C)NC(=O)[C@H](CCCNC(=N)N)NC(=O)[C@@H](N)C(C)C)C(=O)N[C@@H](CCCNC(=N)N)C(=O)N[C@H](C(=O)N[C@@H](CCCNC(=N)N)C(=O)N[C@H](C(=O)N[C@H](C(=O)N[C@@H](CCCNC(=N)N)C(=O)N[C@@H](CCCCN)C(N)=O)[C@@H](C)CC)C(C)C)C(C)C [HH11, VRLRIRVRVIRK] (H-VRLRIRVRVIRK-NH2; N-terminus assumed) | 3 µg/mL (≈ 1.92 µM) | 12 µg/mL (≈ 7.68 µM) | 6 µg/mL (≈ 3.84 µM) | 3 µg/mL (≈ 1.92 µM) | 0.8 µg/mL (≈ 0.512 µM) | 1.6 µg/mL (≈ 1.02 µM) | 6 µg/mL (≈ 3.84 µM) |  |
| CC[C@H](C)[C@H](NC(=O)[C@H](CCCNC(=N)N)NC(=O)[C@H](CC(C)C)NC(=O)[C@H](CCC(N)=O)NC(=O)[C@@H](N)C(C)C)C(=O)N[C@@H](CCCNC(=N)N)C(=O)N[C@H](C(=O)N[C@@H](CCCNC(=N)N)C(=O)N[C@H](C(=O)N[C@H](C(=O)N[C@@H](CCCNC(=N)N)C(=O)N[C@@H](CCCCN)C(N)=O)[C@@H](C)CC)C(C)C)C(C)C [HH9, VQLRIRVRVIRK] (H-VQLRIRVRVIRK-NH2; N-terminus assumed) | 6 µg/mL (≈ 3.91 µM) | 12 µg/mL (≈ 7.82 µM) | 6 µg/mL (≈ 3.91 µM) | 6 µg/mL (≈ 3.91 µM) | 1.6 µg/mL (≈ 1.04 µM) | 3 µg/mL (≈ 1.95 µM) | 12 µg/mL (≈ 7.82 µM) |  |
| CC[C@H](C)[C@H](NC(=O)[C@H](CCCNC(=N)N)NC(=O)[C@H](CC(C)C)NC(=O)[C@H](CCCNC(=N)N)NC(=O)[C@@H](N)CCC(N)=O)C(=O)N[C@@H](CCCNC(=N)N)C(=O)N[C@H](C(=O)N[C@@H](C)C(=O)N[C@H](C(=O)N[C@H](C(=O)N[C@@H](CCCNC(=N)N)C(=O)N[C@@H](C)C(N)=O)[C@@H](C)CC)C(C)C)C(C)C [HH1, QRLRIRVAVIRA] (H-QRLRIRVAVIRA-NH2) | 50 µg/mL (≈ 34.5 µM) | 50 µg/mL (≈ 34.5 µM) | 25 µg/mL (≈ 17.2 µM) | 25 µg/mL (≈ 17.2 µM) | 12 µg/mL (≈ 8.28 µM) | 6 µg/mL (≈ 4.14 µM) | 50 µg/mL (≈ 34.5 µM) |  |
